Source: a melting point compilation (Tetko et al.; mined from patent text by program, amines drawn as free bases though some values may be those of a salt)

Compared with `CN(CCc1nc(-c2cc(C(C)(C)C)c(O)c(C(C)(C)C)c2)cs1)C(=O)OC(C)(C)C`, `Cc1[nH]c(=S)[nH]c1-c1cc(C(C)(C)C)c(O)c(C(C)(C)C)c1` is higher in melting point: 204 °C for the first, 288 to 290 °C for the second.

First: CN(C)CCc1[nH]c2ccccc2c1CSc1ccc(Cl)cc1
Second: Clc1ccc2c(c1)C(c1ccccc1)Nc1nccn1-2 (configuration not stated)
The melting point of the first is lower: 115 to 117 °C for the first, 239 to 241 °C for the second.

First: c1ccc(-c2cc3cccc(CSCCN4CCCCC4)c3o2)cc1
Second: CCOC(=O)Cc1nc(-c2ccccc2)oc1-c1ccco1
The melting point of the first is lower: 64.5 to 65.5 °C for the first, 79 to 80 °C for the second.

Compared with `C=CS(=O)(=O)Nc1c(C)cc(C)cc1C`, `Cc1ccc2c(c1)C(=O)C(CC=O)C2` (racemic) is lower in melting point: 117 to 120 °C for the first, 53 to 54 °C for the second.

Compared with `CCOC(=O)CCc1cn(Cc2ccc(O)cc2)nc1O`, `COCc1ccc(N2CCN(Cc3c[nH]c4ncccc34)CC2)cc1` is higher in melting point: 143 to 144 °C for the first, 162 to 163 °C for the second.

First: ClC1(Cl)OC(Cl)(Cl)c2ccccc21
Second: CS(=O)Cc1cc(=O)c2ccccc2o1 (configuration not stated)
The melting point of the first is lower: 85 to 86 °C for the first, 142 to 146 °C for the second.

First: CCCCCCCC[C@H](O)[C@H](O)[C@H]1CCC(=O)O1
Second: CCCCCCCCCCCCC(O)CC#CCCCC(=O)O (configuration not stated)
The melting point of the first is higher: 117 to 119 °C for the first, 80.5 to 81 °C for the second.

First: CC(C)(C)c1ccc(S(=O)(=O)N2c3ccccc3C[C@H]2C(=O)NCc2cccc(O)c2)cc1
Second: COc1ccc(S(=O)(=O)Nc2cc(C(=O)Nc3ccccc3)ccc2OC)cc1
The melting point of the first is lower: 94 °C for the first, 184 to 186 °C for the second.

Compared with `NS(=O)(=O)c1ccc(C2=C(c3ccc(F)cc3)CCC2)cc1`, `Fc1ccc(COc2ccc(CS)cc2)cc1` is lower in melting point: 173 to 174 °C for the first, 77 to 80 °C for the second.

First: Nc1nc2c(Cl)cc(C(F)(F)F)cc2[nH]c1=O
Second: Nc1nc(O)ncc1-c1cccc(Cl)c1Cl
The melting point of the first is lower: 270 to 272 °C for the first, 330 to 334 °C for the second.

First: CCc1c(N)cccc1NC(=O)c1ccc(Br)cc1
Second: ClCC=C(c1ccc(Br)cc1)c1cccnc1
The melting point of the first is higher: 169 to 170 °C for the first, 156 to 159 °C for the second.

First: O=c1[nH]nc(-c2cccc([N+](=O)[O-])c2)c2ncccc12
Second: CCOC(=O)C1=C(CSC(=N)N)NC(C)=C(C(=O)OC)C1c1cccc([N+](=O)[O-])c1 (single isomer, unassigned; (+))
The melting point of the first is higher: 302 °C for the first, 122 to 124 °C for the second.

Compared with `O=C(N[C@@H]1CN2C(=O)N(c3cc(Cl)nc(Cl)c3)C(=O)[C@@]2(Cc2ccc(OC(F)(F)F)cc2)C1)c1ccncc1`, `COC(=O)C1CC1c1ccc(OCc2cccc(Oc3ccccc3)c2)cc1` (configuration not stated) is lower in melting point: 148 °C for the first, 55 to 56 °C for the second.

First: Cc1oncc1C(=O)N1CCC[C@H](c2nc(-c3cc4ccccc4[nH]3)no2)C1
Second: CC1CN(c2nc(N)nc(-c3cc(Cl)ccc3Cl)n2)CC(C)O1 (configuration not stated)
The melting point of the first is lower: 163 to 164 °C for the first, 192 to 195 °C for the second.

First: CN1CCN(C(=O)c2ccc(Nc3cc(NC(=O)Nc4c(Cl)cc(Cl)cc4Cl)ncn3)cc2)CC1
Second: CCOC(=O)C(Cc1ccccc1)NC(=O)N1CCc2cc(S(=O)(=O)N3CCN(c4cccc(Cl)c4)CC3)ccc21 (configuration not stated)
The melting point of the first is higher: 165 to 175 °C for the first, 123 to 124 °C for the second.

Compared with `CCOC(=O)CN1CC2CCC(=O)N2C1=O` (configuration not stated), `Cc1cnc2c(c1)CCCC2C(N)=S` (configuration not stated) is higher in melting point: 99 to 101 °C for the first, 149 °C for the second.

First: Cc1ccc(C(=O)Nc2c[nH]nc2C(=O)NCCC#N)cc1
Second: CC1CC(=O)NN=C1c1ccc(NC(=O)C2CC2(Cl)Cl)cc1 (configuration not stated)
The melting point of the first is lower: 207 to 209 °C for the first, 252 to 253 °C for the second.

First: CC1(C)C(=O)N(Cc2ccccc2Cl)OC1Nc1ccccc1 (configuration not stated)
Second: O=C(CO)Nc1nc2c(Cl)cccc2s1
The melting point of the first is lower: 99 to 101 °C for the first, 242 to 245 °C for the second.

First: CNc1ccc2[nH]ncc2c1
Second: Cc1ccc(C(=O)Cc2nnnn2C)c(N)c1
The melting point of the first is lower: 144 to 146 °C for the first, 155 to 156 °C for the second.

First: CCCCc1c(-c2cnccn2)ssc1=S
Second: CCCCCCCCOc1cnc(-c2ccc(CCCCCC(C)OC(C)=O)cc2)nc1 (single isomer, unassigned; (+))
The melting point of the first is lower: 72 °C for the first, 73 to 74 °C for the second.

First: Cc1c(C)c2c(c(C)c1O)C(CBr)C(C)(C)O2 (configuration not stated)
Second: O=C(O)C1CC(c2ccco2)=NN1C(=O)CCS (configuration not stated)
The melting point of the first is lower: 79 to 80 °C for the first, 121 to 123 °C for the second.
